{"source": "patent US4859229A", "about": "“3-Aryluracils having an ether (thio) carbomyloxy or sulphomyloxy substituent on the aromatic moiety” (Hoffmann-La Roche Inc., priority 1986, dated 1989)", "test_system": "weeds, including weed grasses", "experiment": "herbicidal activity (general statement, no test described)", "type": "in vivo", "details": "in words; no rate or test printed", "data": [{"compound": "Cn1c(C(F)(F)F)cc(=O)n(-c2cc(O)c(Cl)cc2F)c1=O", "note": "[3-(4-chloro-2-fluoro-5-hydroxyphenyl)-1-methyl-6-trifluoromethyl-2,4(1H,3H)-pyrimidinedione]", "values": [{"measurement": "herbicidal activity", "result": "especially pronounced herbicidal activity"}]}]}
